Measurements as given in patent publication US20220228126A1, “USE OF PCBP1 TO GENERATE INDUCED PLURIPOTENT STEM CELLS WHILE INHIBITING ONCOGENESIS” (priority 2019, published 2022).

Experiments:
[1] = tested on: c-Myc; assay: qRT-PCR quantification of c-Myc expression in cancer stem cells; type: cell-based, human; conditions: 10 μM niclosamide, DMSO base-line; U87-MG (CSC), DU-145 (CSC), MCF-7 (CSC)
Procedure: (§1) FIG. 28A-B: qRT-PCR quantification of c-Myc and BCL-2 expression in U87-MG(CSC) cells treated with DMSA or 10 μM niclosamide. For calculations: DMSO served as base-line in FIG. 28A. Mock-transfection served as base-line in FIG. 28B. Dotted line marks 1.5 fold change in y-axis, considered the benchmark for statistical significance.
as §1, with “29A-B:” for “28A-B:”, “DU-145 (CSC)” for “U87-MG(CSC)”, “29A.” for “28A.”, “29B.” for “28B.”
as §1, with “30A-B.” for “28A-B:”, “DU-145 (CSC)” for “U87-MG(CSC)”, “30A.” for “28A.”, “30B.” for “28B.”
(§2) U87-MG (CSC) were used to validate the NF-kB pathway. Cells were lysed using RIPA lysis buffer and 35 mcg cell lysate protein (determined by BCA assay) was loaded per well. […] The expression of c-Myc in the cells as measured by Western Blot was normalized. […] RNA levels were measured by qPRC using gene-specific Taqman probes for c-Myc and BCL-2. […]

[2] = tested on: BCL-2; assay: qRT-PCR quantification of BCL-2 expression in cancer stem cells; type: cell-based, human; conditions: 10 μM niclosamide, DMSO base-line; U87-MG (CSC), DU-145 (CSC), MCF-7 (CSC)
Procedure: as §1
as §1, with “29A-B:” for “28A-B:”, “DU-145 (CSC)” for “U87-MG(CSC)”, “29A.” for “28A.”, “29B.” for “28B.”
as §1, with “30A-B.” for “28A-B:”, “DU-145 (CSC)” for “U87-MG(CSC)”, “30A.” for “28A.”, “30B.” for “28B.”
as §2

[3] = tested on: reactive oxygen species (ROS); conditions: mechanism shown in FIG. 25; cited from earlier work

O=C(Nc1ccc([N+](=O)[O-])cc1Cl)c1cc(Cl)ccc1O [niclosamide]
c-Myc expression [1]: significantly down-regulated
BCL-2 expression [2]: significantly down-regulated
intracellular ROS content [3]: elevates
